Target: T1, oxidosqualene cyclase (Rattus norvegicus, UniProt P48450)
T1 construct: Microsomes, prepared by ultracentrifugation of homogenates of rat liver; from tissue; host or cells: rat liver microsomes plus high speed supernatant fraction
T1 sequence (P48450 1-733): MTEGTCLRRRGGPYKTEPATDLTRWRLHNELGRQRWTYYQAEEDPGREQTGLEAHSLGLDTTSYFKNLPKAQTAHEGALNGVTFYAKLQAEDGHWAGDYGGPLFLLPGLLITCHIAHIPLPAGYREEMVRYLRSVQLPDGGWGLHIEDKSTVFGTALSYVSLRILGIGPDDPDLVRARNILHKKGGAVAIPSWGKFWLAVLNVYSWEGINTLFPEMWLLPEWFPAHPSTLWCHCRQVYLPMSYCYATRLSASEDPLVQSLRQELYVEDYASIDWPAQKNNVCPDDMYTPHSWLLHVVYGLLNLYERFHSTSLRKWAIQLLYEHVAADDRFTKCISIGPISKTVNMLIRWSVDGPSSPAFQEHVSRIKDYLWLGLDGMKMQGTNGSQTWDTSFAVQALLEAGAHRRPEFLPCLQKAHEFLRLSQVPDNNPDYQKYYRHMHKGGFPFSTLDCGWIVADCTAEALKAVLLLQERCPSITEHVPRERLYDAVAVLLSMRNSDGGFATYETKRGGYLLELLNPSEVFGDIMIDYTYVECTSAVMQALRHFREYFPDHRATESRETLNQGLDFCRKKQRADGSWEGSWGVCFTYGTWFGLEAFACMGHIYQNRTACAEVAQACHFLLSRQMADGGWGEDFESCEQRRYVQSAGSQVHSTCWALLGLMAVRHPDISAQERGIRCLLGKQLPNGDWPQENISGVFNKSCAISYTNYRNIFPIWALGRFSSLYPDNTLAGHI
Assay: Inhibition of cholesterol biosynthesis: oxidosqualene cyclase in rat liver microsomes (TLC or HPLC assay)
Format: biochemical
Details: 37°C, 45 minutes, 60µM ³H-squalene, 2.0mM NADPH, 0.01mM FAD, compounds tested at 0.0 to 100.0µM, read-out: Cyclase, IC₅₀
Protocol: The following example illustrates the utility of compounds of formula (1) in inhibiting cholesterol biosynthesis. This example is understood to be illustrative only and is not intended to limit the scope of the present invention in any way. Microsomes, prepared by ultracentrifugation of homogenates of rat liver, are incubated at 37°C for 45 muinutes in the presence of 60µM ³H-squalene, 2.0mM NADPH, 0.01mM FAD, and the high speed supernatant fraction from the microsomal preparation. Blanks, in which NADPH has been omitted, are run simultaneously with the test compounds. Compounds are tested at concentrations of 0.0 to 100.0µM.
• a) TLC Assay: Following incubation, the samples are saponified, standards are added to each sample, and then the reaction products are extracted into hexane. […] Spots containing the reaction products are scraped from the TLC plates and counted for ³H-radioactivity in a scintillation counter. An IC₅₀ for squalene epoxidase and oxidosqualene cyclase is calculated. • b) HPLC Assay: Following incubation, reactions are stopped by the addition of chloroform:methanol, standards are added, then reaction products and standards are extracted into chloroform. […] Chromatographic peaks containing reaction products are monitored for ³H- radioactivity with a flow-through scintillation counter connected in series with the HPLC column. […]

| SMILES | IC50 [µM] |
| --- | --- |
| CC(C)CCSCCCCCN1CCCCC1 [Compound A] | 24 |
| CCSCCN1CCCCC1 [Compound E, 2-(1-piperidyl)ethyl ethyl sulfide] | > 100 |

Reference: patent EP0468434B1, “Novel piperidyl ethers and thioethers as inhibitors of cholesterol biosynthesis” (MERRELL DOW PHARMACEUTICALS INC., priority 1990, dated 1992)
